According to US10125098B2, “Therapeutic compounds and methods of use thereof” (GENENTECH, INC., priority 2014, dated 2018):
pIC50: −log10 of the molar value. Structures can show the parent of a compound that is named as a salt. Where two headings read alike, the source gives them in different places.

How the values were obtained:
[1] = target: T1, human NaV1.7 (Homo sapiens, UniProt Q15858); test: Patch voltage clamp electrophysiology assay (EP), NaV1.7; type: cell-based; conditions: HEK-293 cells stably expressing NaV1.7 with β1 subunit; whole-cell patch clamp, membrane potential −60 mV (inactivated state)
T1 construct: permanently transfected with an expression vector containing the full-length cDNA coding for the desired human sodium channel α-subunit; expressed in transfected cells; host or cells: HEK-293
T1 sequence (Q15858 1-1977 isoform Q15858-3): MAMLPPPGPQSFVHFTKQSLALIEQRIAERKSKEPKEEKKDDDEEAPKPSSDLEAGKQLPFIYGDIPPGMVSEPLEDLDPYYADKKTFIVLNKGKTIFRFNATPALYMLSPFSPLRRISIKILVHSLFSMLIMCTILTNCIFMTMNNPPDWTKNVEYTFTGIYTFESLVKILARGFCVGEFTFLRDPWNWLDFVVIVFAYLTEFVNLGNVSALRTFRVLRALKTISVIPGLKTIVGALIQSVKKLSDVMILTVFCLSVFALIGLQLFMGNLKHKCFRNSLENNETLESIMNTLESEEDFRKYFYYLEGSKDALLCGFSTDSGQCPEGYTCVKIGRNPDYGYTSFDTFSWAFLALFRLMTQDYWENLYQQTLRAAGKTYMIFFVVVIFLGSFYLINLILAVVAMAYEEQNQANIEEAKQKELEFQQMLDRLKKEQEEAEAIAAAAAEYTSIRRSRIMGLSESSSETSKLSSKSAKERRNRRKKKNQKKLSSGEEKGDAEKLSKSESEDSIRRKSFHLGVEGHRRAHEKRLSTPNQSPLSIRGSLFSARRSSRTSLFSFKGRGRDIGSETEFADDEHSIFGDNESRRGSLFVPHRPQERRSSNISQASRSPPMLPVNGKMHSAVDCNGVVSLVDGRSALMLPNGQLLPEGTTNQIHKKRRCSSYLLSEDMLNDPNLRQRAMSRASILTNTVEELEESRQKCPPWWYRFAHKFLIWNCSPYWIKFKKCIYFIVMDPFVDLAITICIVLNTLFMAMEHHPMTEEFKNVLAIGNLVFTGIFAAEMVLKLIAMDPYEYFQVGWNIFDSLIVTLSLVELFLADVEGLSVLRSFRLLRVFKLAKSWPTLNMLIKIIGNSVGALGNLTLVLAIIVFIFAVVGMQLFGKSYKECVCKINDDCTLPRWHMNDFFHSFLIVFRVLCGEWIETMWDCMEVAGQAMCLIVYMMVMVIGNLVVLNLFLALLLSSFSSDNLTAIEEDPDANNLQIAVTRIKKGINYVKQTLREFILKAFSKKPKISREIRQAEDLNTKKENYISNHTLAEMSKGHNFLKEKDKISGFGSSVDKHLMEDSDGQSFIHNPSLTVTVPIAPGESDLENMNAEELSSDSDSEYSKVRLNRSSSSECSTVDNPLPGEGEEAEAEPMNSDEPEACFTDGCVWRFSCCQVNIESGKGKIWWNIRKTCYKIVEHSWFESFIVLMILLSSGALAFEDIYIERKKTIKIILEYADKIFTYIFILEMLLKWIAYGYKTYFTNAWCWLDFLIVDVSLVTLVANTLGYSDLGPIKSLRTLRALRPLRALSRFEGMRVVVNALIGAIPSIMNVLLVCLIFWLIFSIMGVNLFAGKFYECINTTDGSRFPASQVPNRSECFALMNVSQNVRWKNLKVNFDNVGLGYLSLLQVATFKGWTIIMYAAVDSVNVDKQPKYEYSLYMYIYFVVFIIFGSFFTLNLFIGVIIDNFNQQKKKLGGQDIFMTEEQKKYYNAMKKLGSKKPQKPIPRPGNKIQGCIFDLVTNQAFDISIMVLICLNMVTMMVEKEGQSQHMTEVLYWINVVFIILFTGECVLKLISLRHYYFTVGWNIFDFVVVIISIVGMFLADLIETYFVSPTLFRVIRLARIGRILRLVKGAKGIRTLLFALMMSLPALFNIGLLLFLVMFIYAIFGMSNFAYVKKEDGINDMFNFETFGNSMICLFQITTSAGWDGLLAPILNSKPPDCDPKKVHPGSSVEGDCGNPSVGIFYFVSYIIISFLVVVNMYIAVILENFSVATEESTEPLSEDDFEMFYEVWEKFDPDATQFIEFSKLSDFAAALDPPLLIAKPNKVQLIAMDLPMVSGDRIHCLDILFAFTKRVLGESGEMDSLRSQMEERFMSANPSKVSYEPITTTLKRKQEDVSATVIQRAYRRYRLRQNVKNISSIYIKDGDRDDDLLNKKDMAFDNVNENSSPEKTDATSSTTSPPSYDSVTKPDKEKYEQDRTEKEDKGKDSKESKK
T1 sequence (Q07699 19-218 partner): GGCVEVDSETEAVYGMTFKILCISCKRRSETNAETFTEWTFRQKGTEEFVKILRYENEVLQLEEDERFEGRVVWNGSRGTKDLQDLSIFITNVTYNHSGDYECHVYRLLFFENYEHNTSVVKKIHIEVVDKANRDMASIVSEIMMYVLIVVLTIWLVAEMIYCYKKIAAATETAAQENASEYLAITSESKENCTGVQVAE
In short: (§1)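 Percent block is the drop in sodium current after compound wash-on, measured by a test pulse following 20 ms at −150 mV from a −60 mV inactivating holding potential.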

[2] = target: T2, hNav1.7 (Homo sapiens, UniProt Q15858); test: Tritiated compound binding (LBA) to membranes from cells expressing hNav1.7 and the β1 subunit, competitive binding; conditions: competitive binding vs 100 pM [3H]compound, 18 h, room temperature, membranes with hNav1.7 and β1 subunit
T2 construct: expressed in transfected cells
T2 sequence (Q15858 1-1977 isoform Q15858-3): as the sequence (Q15858 1-1977 isoform Q15858-3) above
T2 sequence (Q07699 19-218 partner): as the sequence (Q07699 19-218 partner) above
In short: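 Competitive displacement of 100 pM [3H]compound (tritiated methyl analogue of formula (I)) from hNav1.7/β1 membranes, 18 h at room temperature in NaCl/Tris pH 7.4 buffer containing 0.01% BSA. 1 μM unlabeled compound set non-specific binding. Bound label quantified by scintillation after filtration; 4-parameter fit gave IC50.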

[3] = target: T3, NaV1.5 (Homo sapiens, UniProt Q14524); test: Patch voltage clamp electrophysiology assay (EP), NaV1.5; type: cell-based; conditions: HEK-293 cells stably expressing NaV1.5 with β1 subunit, whole-cell patch clamp, membrane potential −60 mV (inactivated state)
T3 construct: permanently transfected with an expression vector containing the full-length cDNA coding for the desired human sodium channel α-subunit; expressed in transfected cells; host or cells: HEK-293
T3 sequence (Q14524 whole entry): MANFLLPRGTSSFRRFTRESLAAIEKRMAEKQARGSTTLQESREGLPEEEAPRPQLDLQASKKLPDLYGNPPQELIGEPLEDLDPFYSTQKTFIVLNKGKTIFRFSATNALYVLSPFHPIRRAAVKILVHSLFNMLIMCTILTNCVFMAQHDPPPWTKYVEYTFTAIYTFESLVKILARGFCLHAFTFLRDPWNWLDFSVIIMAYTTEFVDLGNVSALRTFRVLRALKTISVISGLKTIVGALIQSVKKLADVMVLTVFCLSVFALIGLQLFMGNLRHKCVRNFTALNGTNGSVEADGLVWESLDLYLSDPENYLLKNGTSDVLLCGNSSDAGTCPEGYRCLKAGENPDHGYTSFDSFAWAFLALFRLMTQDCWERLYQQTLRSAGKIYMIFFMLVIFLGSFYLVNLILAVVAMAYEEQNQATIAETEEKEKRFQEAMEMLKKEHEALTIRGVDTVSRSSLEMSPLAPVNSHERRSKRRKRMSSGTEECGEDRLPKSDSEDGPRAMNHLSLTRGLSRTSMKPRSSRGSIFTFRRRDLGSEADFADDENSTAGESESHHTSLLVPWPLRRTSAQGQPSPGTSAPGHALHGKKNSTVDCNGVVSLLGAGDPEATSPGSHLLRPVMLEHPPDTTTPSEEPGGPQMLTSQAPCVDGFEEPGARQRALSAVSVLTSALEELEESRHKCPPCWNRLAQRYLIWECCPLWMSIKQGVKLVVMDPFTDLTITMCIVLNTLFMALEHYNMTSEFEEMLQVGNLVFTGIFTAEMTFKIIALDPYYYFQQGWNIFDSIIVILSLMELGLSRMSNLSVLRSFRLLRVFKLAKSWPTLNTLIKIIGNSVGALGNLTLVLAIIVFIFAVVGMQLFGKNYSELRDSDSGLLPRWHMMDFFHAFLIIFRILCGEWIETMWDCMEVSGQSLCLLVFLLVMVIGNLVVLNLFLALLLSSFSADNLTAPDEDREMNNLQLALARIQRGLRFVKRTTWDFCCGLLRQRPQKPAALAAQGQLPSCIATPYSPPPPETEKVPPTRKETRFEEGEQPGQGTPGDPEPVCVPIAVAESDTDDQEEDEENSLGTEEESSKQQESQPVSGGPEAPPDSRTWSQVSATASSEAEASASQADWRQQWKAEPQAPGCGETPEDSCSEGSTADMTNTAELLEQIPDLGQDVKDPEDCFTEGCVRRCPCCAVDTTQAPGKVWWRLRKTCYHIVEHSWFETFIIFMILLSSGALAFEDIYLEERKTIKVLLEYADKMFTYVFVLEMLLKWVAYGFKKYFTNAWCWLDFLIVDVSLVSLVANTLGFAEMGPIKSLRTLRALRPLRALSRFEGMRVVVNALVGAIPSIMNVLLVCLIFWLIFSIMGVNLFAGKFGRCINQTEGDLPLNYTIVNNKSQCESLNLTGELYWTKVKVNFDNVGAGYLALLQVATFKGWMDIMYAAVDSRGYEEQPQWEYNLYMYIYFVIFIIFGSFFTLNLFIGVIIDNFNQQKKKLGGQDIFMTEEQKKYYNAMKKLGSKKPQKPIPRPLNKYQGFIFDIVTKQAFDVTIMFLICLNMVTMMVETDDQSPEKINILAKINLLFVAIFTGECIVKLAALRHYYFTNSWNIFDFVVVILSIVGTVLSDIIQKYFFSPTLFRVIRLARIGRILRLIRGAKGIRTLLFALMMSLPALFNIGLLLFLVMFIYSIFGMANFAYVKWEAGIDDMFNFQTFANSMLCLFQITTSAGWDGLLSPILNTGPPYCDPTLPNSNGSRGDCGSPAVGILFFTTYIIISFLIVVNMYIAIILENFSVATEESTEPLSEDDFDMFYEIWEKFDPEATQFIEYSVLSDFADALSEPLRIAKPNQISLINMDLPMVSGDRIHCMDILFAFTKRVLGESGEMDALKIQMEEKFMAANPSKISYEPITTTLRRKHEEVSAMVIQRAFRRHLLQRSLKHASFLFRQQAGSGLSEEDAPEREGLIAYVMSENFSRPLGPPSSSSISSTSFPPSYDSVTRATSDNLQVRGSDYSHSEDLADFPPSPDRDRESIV
In short: as §1

[4] = human, HEK-293 cells stably expressing human NaV1.5 with β1 subunit, pH 7.4

Compound	pIC50 [1]	pIC50 [2]	pIC50 ([3]; read-out: Nav1.5)	pIC50 [3, 4]
C[C@@H](c1cc(Cl)cc(Cl)c1)N1CCC(COc2cc(F)c(C(=O)N3C[C@H](Cl)C[C@H]3C(=O)O)cc2C2CC2)CC1 [Example 169, (2S,4R)-4-chloro-1-(5-cyclopropyl-4-((1-((S)-1-(3,5-dichlorophenyl)ethyl)piperidin-4-yl)methoxy)-2-fluorobenzoyl)pyrrolidine-2-carboxylic acid]	6.11	7.04	4.89	–
O=C(N[C@H](C(=O)O)C1CCC1)c1cc(C2CC2)c(OCC23CC4CC(CC(C4)C2)C3)cc1F [Example 170, (2S)-2-[[4-(1-adamantylmethoxy)-5-cyclopropyl-2-fluorobenzoyl]amino]-2-cyclobutyl-acetic acid]	5.42	6.59	5.43	–
CC(c1cc(Cl)cc(Cl)c1)N1CCC(COc2cc(F)c(C(=O)N3[C@@H](C(=O)O)C[C@H]4CCC[C@H]43)cc2C2CC2)CC1 (stereo partly drawn) [Example 172, (2R,3R,6R)-1-(5-cyclopropyl-4-((1-((R)-1-(3,5-dichlorophenyl)ethyl)piperidin-4-yl)methoxy)-2-fluorobenzoyl)octahydrocyclopenta[b]pyrrole-2-carboxylic acid]	5.38	6.00	4.85	–
O=C(O)[C@@H]1C[C@@H](F)CN1C(=O)c1cc(C2CC2)c(OCC2CCN(Cc3cc(Cl)cc(C(F)(F)F)c3)CC2)cc1F [Example 173, (2S,4R)-1-(4-((1-(3-chloro-5-(trifluoromethyl)benzyl)piperidin-4-yl)methoxy)-5-cyclopropyl-2-fluorobenzoyl)-4-fluoropyrrolidine-2-carboxylic acid]	6.48	7.19	4.64	–
CC(c1ccc(Cl)cc1Cl)N1CCC(COc2cc(F)c(C(=O)N3C[C@H](F)C[C@H]3C(=O)O)cc2C2CC2)CC1 (stereo partly drawn) [Example 174]	6.47	7.59	–	≤ 4.52
O=C(O)[C@@H]1C[C@@H](F)CN1C(=O)c1cc(C2CC2)c(OCC2CCN(Cc3ccc(Cl)c(Cl)c3)CC2)cc1F [Example 175, (2S,4R)-1-(5-cyclopropyl-4-((1-(3,4-dichlorobenzyl)piperidin-4-yl)methoxy)-2-fluorobenzoyl)-4-fluoropyrrolidine-2-carboxylic acid]	5.92	6.96	–	≤ 4.52
O=C(c1cc(C2CC2)c(OCC23CC4CC(CC(C4)C2)C3)cc1F)N1CC2CC1(C(=O)O)C2 [Example 176, 3-[4-(1-adamantylmethoxy)-5-cyclopropyl-2-fluoro-benzoyl]-3-azabicyclo[2.1.1]hexane-4-carboxylic acid]	5.89	6.44	5.14	–
COc1ncccc1-c1cc(C(=O)N2CCC[C@H]2C(=O)O)c(F)cc1Oc1cnc(OC(C)C)c(Cl)c1 [Example 179, (S)-1-(4-((5-chloro-6-isopropoxypyridin-3-yl)oxy)-2-fluoro-5-(2-methoxypyridin-3-yl)benzoyl)pyrrolidine-2-carboxylic acid]	6.08	6.40	–	≤ 4.52
O=C(O)[C@@H]1CCCN1C(=O)c1cc(Cl)c(COc2cnc(OCC(F)(F)C(F)F)c(Cl)c2)cc1F [Example 180, (S)-1-(5-chloro-4-(((5-chloro-6-(2,2,3,3-tetrafluoropropoxy)pyridin-3-yl)oxy)methyl)-2-fluorobenzoyl)pyrrolidine-2-carboxylic acid]	5.85	6.08	–	≤ 4.52
O=C(O)[C@@H]1CCCN1C(=O)c1cc(C2CC2)c(OCC2CCN(Cc3cc(Cl)ccc3C(F)(F)F)CC2)cc1F [Example 181, (S)-1-(4-((1-(5-chloro-2-(trifluoromethyl)benzyl)piperidin-4-yl)methoxy)-5-cyclopropyl-2-fluorobenzoyl)pyrrolidine-2-carboxylic acid]	6.64	7.30	–	≤ 4.52
O=C(O)[C@@H]1CCCN1C(=O)c1cc(C2CC2)c(COc2cc(Cl)cc(OC(F)(F)F)c2)cc1F [Example 182, (S)-1-(4-((3-chloro-5-(trifluoromethoxy)phenoxy)methyl)-5-cyclopropyl-2-fluorobenzoyl)pyrrolidine-2-carboxylic acid]	6.66	7.49	4.60	–
CC(C)[C@H](NC(=O)c1cc(C2CC2)c(COc2cc(Cl)cc(OC(F)(F)F)c2)cc1F)C(=O)O [Example 183, (S)-2-(4-((3-chloro-5-(trifluoromethoxy)phenoxy)methyl)-5-cyclopropyl-2-fluorobenzamido)-3-methylbutanoic acid]	5.72	7.51	5.04	–
O=C(O)[C@@H]1CCCN1C(=O)c1cc(C2CC2)c(COc2cnc(OCC(F)(F)C(F)F)c(C3CC3)c2)cc1F [Example 184, (S)-1-(5-cyclopropyl-4-(((5-cyclopropyl-6-(2,2,3,3-tetrafluoropropoxy)pyridin-3-yl)oxy)methyl)-2-fluorobenzoyl)pyrrolidine-2-carboxylic acid]	5.89	6.34	4.64	–
CC(C)COc1ncc(Oc2cc(F)c(C(=O)N[C@H](C(=O)O)C(C)C)cc2Cl)cc1Cl [Example 185, (S)-2-(5-chloro-4-((5-chloro-6-isobutoxypyridin-3-yl)oxy)-2-fluorobenzamido)-3-methylbutanoic acid]	5.02	7.00	4.77	–
CC[C@@H](C)[C@H](NC(=O)c1cc(Cl)c(Oc2cnc(OCC(C)C)c(Cl)c2)cc1F)C(=O)O [Example 186, (2S,3R)-2-(5-chloro-4-((5-chloro-6-isobutoxypyridin-3-yl)oxy)-2-fluorobenzamido)-3-methylpentanoic acid]	5.08	6.46	4.92	–
CC(C)[C@@H](C(=O)O)N(C)C(=O)c1cc(C2CC2)c(COc2cc(Cl)cc(OC(F)(F)F)c2)cc1F [Example 187, (S)-2-(4-((3-chloro-5-(trifluoromethoxy)phenoxy)methyl)-5-cyclopropyl-2-fluoro-N-methylbenzamido)-3-methylbutanoic acid]	5.14	5.48	4.96	–
NC(=O)[C@@H]1CCCN1C(=O)c1cc(C2CC2)c(COc2cc(Cl)cc(OC(F)(F)F)c2)cc1F [Example 188, (5)-1-(4-((3-chloro-5-(trifluoromethoxy)phenoxy)methyl)-5-cyclopropyl-2-fluorobenzoyl)pyrrolidine-2-carboxamide]	5.18	5.04	4.80	–
O=C(N[C@@H](CC1CC1)C(=O)O)c1cc(C2CC2)c(OCC23CC4CC(CC(C4)C2)C3)cc1F [Example 189, (S)-2-(4-((3S,5S,7S)-adamantan-1-ylmethoxy)-5-cyclopropyl-2-fluorobenzamido)-3-cyclopropylpropanoic acid]	5.40	6.92	4.82	–
O=C(O)[C@@H]1CCCN1C(=O)c1cc(C2CC2)c(OCC2CCN(Cc3cc(F)cc(Cl)c3)CC2)cc1F [Example 190, (S)-1-(4-((1-(3-chloro-5-fluorobenzyl)piperidin-4-yl)methoxy)-5-cyclopropyl-2-fluorobenzoyl)pyrrolidine-2-carboxylic acid]	5.54	6.72	–	≤ 4.52
O=C(O)[C@@H]1CCCN1C(=O)c1cc(Cl)c(Oc2cnc(OCC(F)(F)F)c(Cl)c2)cc1F [Example 191, (S)-1-(5-Chloro-4-((5-chloro-6-(2,2,2-trifluoroethoxy)pyridin-3-yl)oxy)-2-fluorobenzoyl)pyrrolidine-2-carboxylic acid trifluoroacetate]	4.72	5.57	–	≤ 4.52
O=C(O)[C@@H]1CCCN1C(=O)c1cc(C2CC2)c(OCC2CCN(C(c3ccccc3)c3cc(Cl)cc(Cl)c3)CC2)cc1F (stereo partly drawn) [Example 193, (2S)-1-(5-Cyclopropyl-4-((1-((3,5-dichlorophenyl)(phenyl)methyl)piperidin-4-yl)methoxy)-2-fluorobenzoyl)pyrrolidine-2-carboxylic acid trifluoroacetate]	6.00	7.70	5.12	–
O=C(O)[C@@H]1CCCN1C(=O)c1cc(C2CCC2)c(OCC23CC4CC(CC(C4)C2)C3)cc1F [Example 194, (S)-1-(4-(adamantan-1-ylmethoxy)-5-cyclobutyl-2-fluorobenzoyl)pyrrolidine-2-carboxylic acid trifluoroacetate]	6.19	7.66	5.00	–
Cc1nn(C2CCN(c3ccc(Cl)c(C(F)(F)F)n3)CC2)c2cc(F)c(C(=O)N3CCC[C@H]3C(=O)O)cc12 [Example 195, (S)-1-(1-(1-(5-chloro-6-(trifluoromethyl)pyridin-2-yl)piperidin-4-yl)-6-fluoro-3-methyl-1H-indazole-5-carbonyl)pyrrolidine-2-carboxylic acid trifluoroacetate]	5.23	5.72	–	≤ 4.52
